Where a SMILES comes first, the peptide text is derived from it.
What was measured:
Growth Hormone secretion [1] = assay: Growth Hormone secretion in female mice after subcutaneous GRF analog; type: in vivo; details: female CD-1 mice; 10 μg/mouse subcutaneous; plasma 10 minutes after injection
From the text: (§1) CD-1 mice (female, weighting from 20 to 25 g) were obtained from Charles River Inc. Animals were used according to a protocol of the Animal Care Committee along with the principles of the Guide for the Care and Use of Experimental Animals of the Canadian Council on Animal Care. The animals were maintained on standard laboratory chow under a 12:12 light:dark cycle. They were kept in groups of 4 mice per cage.
At the day of the experiment, mice received a subcutaneous injection of GRF analog (10 μg/mouse dissolved in 20 mM sodium acetate (AcONa)+5% mannitol at pH 5). 10 minutes after injection, the mice were anesthezied with isolufrane. Blood samples (500 μl) were obtained by intra-cardiac puncture. Blood was placed into microtainer pre-treated with K3EDTA and immediately centrifuged at 13,000 RPM in a desktop centrifuge for 2 minutes. The plasma was collected and placed into a screwcap Eppendorf™ tube and quick frozen in liquid nitrogen. The samples were then kept at −80° C. until assayed. Determination of GH levels was performed as described below.
(§2) Rat and mouse plasma samples were vortexed carefully and centrifuged at 9,000 RPM for 2 min at 4° C. The dosage of GH levels was performed using the Rat/Mouse Growth Hormone ELISA kit from Millipore (Cat. # EZRMGH-45K). Sample supernatants were first diluted 20-fold with the GH ELISA assay buffer, and 10 μl of this dilution was added to the ELISA plate with 90 μl of GH EIA assay buffer. The remaining of the procedure was performed according to the manufacturer's instructions, and the data obtained were analyzed using GraphPad Prism™ software.
(§3) The GRF analogs described herein were tested for their ability to induce GH release in female mice and rats. […] The data are presented in Tables III (mice) and IV-V (rats).

Growth Hormone secretion [2] = assay: Growth Hormone secretion in female rats after subcutaneous GRF analog; type: in vivo; details: female Sprague-Dawley rats; 10 μg/rat subcutaneous; plasma 0-60 minutes
From the text: as §1, with “Sprague-Dawley rats” for “CD-1 mice”, “250” for “20”, “300” for “25”, “rats” for “mice”
The animals were anesthetized with isoflurane 2.5%. A mid-section opening was made in the neck to expose the carotid artery. The carotid artery was canulated with polypropylene tubing (PE-50) to allow blood withdrawal. After surgical preparation, rats received a subcutaneous injection of GRF analog (10 μg/rat dissolved in 20 mM AcONa+5% mannitol at pH 5). For pharmacodynamics studies, blood samples (400 μL) were collected from 4 to 8 animals per group per time point. Blood samples (400 μl) were collected via the carotid catheter at 0, 10, 20, 30, 45 and 60 minutes after drug injection. Blood was placed into microtainer pre-treated with K3EDTA and immediately centrifuged at 13,000 RPM in a desktop centrifuge for 2 minutes. The plasma was collected and placed into a screw cap Eppendorf™ and quick frozen in liquid nitrogen. The samples were then kept at −80° C. until assayed. Determination of GH levels was performed as described below.
as §2, §3

Row | Compound | GH levels 10 min (Growth Hormone secretion [1]) [ng/mL] | Mean AUC (GH Area Under the curve, GH concentration over time) (Growth Hormone secretion [2]) | Mean Cmax (ng/ml) of Growth Hormone secretion (Growth Hormone secretion [2]) [ng/mL]
1 | CC[C@H](C)[C@H](NC(=O)[C@H](C)NC(=O)[C@H](CC(=O)O)NC(=O)[C@@H](C)NC(=O)[C@@H](N)Cc1ccc(O)cc1)C(=O)N[C@@H](Cc1ccccc1)C(=O)N[C@H](C(=O)N[C@@H](CC(=O)O)C(=O)N[C@@H](CO)C(=O)N[C@@H](Cc1ccc(O)cc1)C(=O)N[C@@H](CCCNC(=N)N)C(=O)N[C@@H](CCCCN)C(=O)N[C@H](C(=O)N[C@@H](CC(C)C)C(=O)N[C@@H](C)C(=O)N[C@@H](CCC(N)=O)C(=O)N[C@@H](CC(C)C)C(=O)N[C@@H](CCCCN)C(=O)N[C@@H](C)C(=O)N[C@@H](CCCNC(=N)N)C(=O)N[C@@H](CCC(N)=O)C(=O)N[C@@H](CC(=O)O)C(=O)N[C@H](C(=O)N[C@@H](CC(C)C)C(=O)NC(C)(C)C(=O)N[C@@H](CCCNC(=N)N)C(N)=O)[C@@H](C)CC)C(C)C)[C@@H](C)O [SEQ ID NO: 22, Y-a-DAIFTDSYRKVLAQLKARQDIL-aib-R-NH2] (HELM PEPTIDE1{Y.[dA].D.A.I.F.T.D.S.Y.R.K.V.L.A.Q.L.K.A.R.Q.D.I.L.[Aib].R.[am]}$$$$V2.0) | 249.1 |  | 
2 | CC[C@H](C)[C@H](NC(=O)[C@H](C)NC(=O)[C@H](CC(=O)O)NC(=O)[C@@H](C)NC(=O)[C@@H](N)Cc1ccc(O)cc1)C(=O)N[C@@H](Cc1ccccc1)C(=O)N[C@H](C(=O)N[C@@H](CC(=O)O)C(=O)N[C@@H](CO)C(=O)N[C@@H](Cc1ccc(O)cc1)C(=O)N[C@@H](CCCNC(=N)N)C(=O)N[C@@H](CCCCN)C(=O)N[C@H](C(=O)N[C@@H](CC(C)C)C(=O)N[C@@H](C)C(=O)N[C@@H](CCC(N)=O)C(=O)N[C@@H](CC(C)C)C(=O)N[C@@H](CCCN)C(=O)N[C@@H](C)C(=O)N[C@@H](CCCNC(=N)N)C(=O)N[C@@H](CCC(N)=O)C(=O)N[C@@H](CC(=O)O)C(=O)N[C@H](C(=O)N[C@@H](CC(C)C)C(=O)N[C@@H](CO)C(=O)N[C@H](CCCNC(=N)N)C(N)=O)[C@@H](C)CC)C(C)C)[C@@H](C)O [SEQ ID NO: 23, Y-a-D-A-I-F-T-D-S-Y-R-K-V-L-A-Q-L-O-A-R-Q-D-I-L-S-r-NH2] (HELM PEPTIDE1{Y.[dA].D.A.I.F.T.D.S.Y.R.K.V.L.A.Q.L.[Orn].A.R.Q.D.I.L.S.[dR].[am]}$$$$V2.0) | 269.9 |  | 
3 | CC/C=C/CC(=O)N[C@@H](Cc1ccc(O)cc1)C(=O)N[C@@H](C)C(=O)N[C@@H](CC(=O)O)C(=O)N[C@@H](C)C(=O)N[C@H](C(=O)N[C@@H](Cc1ccccc1)C(=O)N[C@H](C(=O)N[C@@H](CC(=O)O)C(=O)N[C@@H](CO)C(=O)N[C@@H](Cc1ccc(O)cc1)C(=O)N[C@@H](CCCNC(=N)N)C(=O)N[C@@H](CCCCN)C(=O)N[C@H](C(=O)N[C@@H](CC(C)C)C(=O)N[C@@H](C)C(=O)N[C@@H](CCC(N)=O)C(=O)N[C@@H](CC(C)C)C(=O)N[C@@H](CCCN)C(=O)N[C@@H](C)C(=O)N[C@@H](CCCNC(=N)N)C(=O)N[C@@H](CCC(N)=O)C(=O)N[C@@H](CC(=O)O)C(=O)N[C@H](C(=O)N[C@@H](CC(C)C)C(=O)N[C@@H](CO)C(=O)N[C@H](CCCNC(=N)N)C(N)=O)[C@@H](C)CC)C(C)C)[C@@H](C)O)[C@@H](C)CC [SEQ ID NO: 24, Trans-3-hexenoyl-Y-A-D-A-I-F-T-D-S-Y-R-K-V-L-A-Q-L-O-A-R-Q-D-I-L-S-r-NH2] (HELM PEPTIDE1{[CC/C=C/CC(=O)[*:2]].Y.A.D.A.I.F.T.D.S.Y.R.K.V.L.A.Q.L.[Orn].A.R.Q.D.I.L.S.[dR].[am]}$$$$V2.0) | 332.6 |  | 
4 | H-YLDAIFTDSYRKVLAQLKARQDILARAARAAR-NH2 [SEQ ID NO: 35, YLDAIFTDSYRKVLAQLKARQDILARAARAAR-NH2] |  | 9144 | 376.9
